Data on two compounds can be found in patent publication US20260151400A1, “USE OF ANTAGONISTS OF NEUROKININ-1 RECEPTOR AND NUCLEOSIDE ANALOGS FOR THE TREATMENT OF HERPESVIRIDAE” (THE REGENTS OF THE UNIVERSITY OF COLORADO, a body corporate, priority 2022, published 2026).

Series [1] concerns uninfected HA-sp (primary human spinal astrocytes). As to conditions: aprepitant tested at 1-100 μM, data not shown. How it is done:
After 24 hours, medium was changed to basal astrocyte medium containing 0.1% FBS and 1% 100× penicillin-streptomycin that was replenished every 72 hours for 7 days to establish quiescence. On day 7, spinal astrocytes were co-cultivated with VZV-infected spinal astrocytes (40 pfu/mL) or mock-infected spinal astrocytes.

The target in series [2] is NK-1 receptors in the brain (Homo sapiens, UniProt P25103). As to conditions: occupies NK-1 receptors in the brain; cited from earlier work.
Chain of NK-1 receptors in the brain (P25103 whole entry): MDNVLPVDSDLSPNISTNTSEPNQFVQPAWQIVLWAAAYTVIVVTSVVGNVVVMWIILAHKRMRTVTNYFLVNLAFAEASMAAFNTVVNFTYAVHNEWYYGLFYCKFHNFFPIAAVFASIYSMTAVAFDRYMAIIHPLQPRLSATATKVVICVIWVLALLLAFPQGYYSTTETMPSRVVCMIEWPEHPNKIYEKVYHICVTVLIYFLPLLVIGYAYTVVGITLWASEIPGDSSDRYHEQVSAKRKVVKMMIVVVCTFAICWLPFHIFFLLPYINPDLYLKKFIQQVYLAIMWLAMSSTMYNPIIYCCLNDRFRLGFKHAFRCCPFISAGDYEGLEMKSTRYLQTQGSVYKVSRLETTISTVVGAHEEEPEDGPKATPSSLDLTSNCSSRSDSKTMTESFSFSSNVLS
The conditions of series [3]: IV acyclovir; precipitation of aciclovir crystals in the kidney; cited from earlier work.

With `C[C@@H](O[C@H]1OCCN(Cc2n[nH]c(=O)[nH]2)[C@H]1c1ccc(F)cc1)c1cc(C(F)(F)F)cc(C(F)(F)F)c1` [aprepitant], the “optimal concentration to avoid cell death” value in series [1] amounted to 10 µM. The blood-brain barrier crossing entry in series [2] is “crosses the blood-brain barrier”.

As to `Nc1nc2c(ncn2COCCO)c(=O)[nH]1` [acyclovir], the “patients with reversible nephrotoxicity” value in series [3] is listed as 5-10%.
